From patent US5059624A, “Guanidine derivatives having hypotensive activity, composition containing them and process for obtaining them” (Consiglio Nazionale Delle Ricerche, priority 1988, dated 1991)
Like-named read-outs stand apart in the source and are kept apart here.

Experiments:
male Wistar rats [1] = test: Comparison with known active ingredients in male Wistar rats under sodium thiopental anaesthesia, rapid i.v. or 5 min infusion; assay type: in vivo, rat (male Wistar); settings: for Δ AP DIASTOLIC / Δ AP SYSTOLIC / Δ HR / Δ dp/dt: maximum response; for general effects on the various haemodynamic parameters (in words): rat
Experimental: In order to compare the activity of the compounds of the present invention to that of the products of the prior art, various doses of known anti-hypertensive, hypotensive and vasoactive drugs were administered to male Wistar rats under general anaesthesia by sodium thiopental (50 mg/kg, i.p.). The administration was effected through "rapid" i.v. route or through intravenous infusion (inf.) for a time of 5 minutes.
The dose of each product is referred to the base, and the volumes injected were of 100 mcl in case of i.v. administration and […] total (0.9% sodium chloride solution) in case of infusion. The various parameters were evaluated in the same way as in the preceding experiments.

male Wistar rats [2] = system: male Wistar rats
Experimental: In order to check its activity, diguanido-II was dissolved in a 0.9 % sodium chloride solution and administered through "rapid" i.v. route in male Wistar rats, under general anaesthesia obtained by means of 10% ethyl urethan (i ml/hg).
The active ingredients called guanido-III, -IV, -V, as well as agmatine and galegine, were also tested, after having been administered through "rapid" i.v. route in male Wistar rats (weighing average 280±5 g) under general anaesthesia obtained by means of 10% ethyl uretan (1 ml/hg, i.p.). The general experimental conditions were exactly the same as previously mentioned for guanido-I and diguanido-II, so that the cardiovascular and respiratory effects could be compared.
The parameters measured are as follows: systolic and diastolic systemic arterial pressure (AP), heart rate (HR), maximum rate of increase in the left ventricular isovolumetric pressure (dp/dt), respiratory frequency (RF) and tidal volume (TV). The doses (in μg/kg body weight, referred to the active substance) varied from 50 μg/kg to 6,400 μg/kg (ratio=2.0); in some cases higher does have been employed.

[3] = Lethal dose 50 (LD50) through i.p. route in mice; settings: mouse, in vivo, ip
Experimental: The lethal dose 50 (LD50) of guanido-I through i.p. route in mice turned out to be 57 mg±3.6 per kg.
The lethal dose 50 (LD50) of the diguanido-II through i.p. route in mice, turned out to be 7 mg±0.6 per kg.

## NCCc1c[nH]cn1 [Histamine]
Male Wistar rats [1]; 5 mcg/kg, i.v.
  Δ AP DIASTOLIC: -28 ± 3 mmHg
  Δ AP SYSTOLIC: -30 ± 3 mmHg
  Δ HR: -7 ± 1 beats/min
  Δ dp/dt: -1314 ± 180 mmHg/sec

## NC[C@H](O)c1ccc(O)c(O)c1 [Noradrenaline]
Male Wistar rats [1]; 1 mcg/kg, i.v.
  Δ AP DIASTOLIC: +31 ± 2 mmHg
  Δ AP SYSTOLIC: +44 ± 3 mmHg
  Δ HR: +14 ± 4 beats/min
  Δ dp/dt: +4314 ± 415 mmHg/sec

## COc1ccc(Cc2nccc3cc(OC)c(OC)cc23)cc1OC [Papaverine]
Male Wistar rats [1]; 2 mg/kg, i.v.
  Δ AP DIASTOLIC: -18 ± 3 mmHg
  Δ AP SYSTOLIC: -23 ± 3 mmHg
  Δ HR: -21 ± 5 beats/min
  Δ dp/dt: -604 ± 102 mmHg/sec
Male Wistar rats [1]
  general effects on the various haemodynamic parameters (in words): general "depressive" effects

## COC(=O)[C@H]1[C@H]2C[C@@H]3c4[nH]c5cc(OC)ccc5c4CCN3C[C@H]2C[C@@H](OC(=O)c2cc(OC)c(OC)c(OC)c2)[C@@H]1OC [Reserpine]
Male Wistar rats [1]; 5 mg/kg, inf.
  Δ AP DIASTOLIC: -24 ± 5 mmHg
  Δ AP SYSTOLIC: -31 ± 6 mmHg
  Δ HR: -47 ± 9 beats/min
  Δ dp/dt: -1580 ± 134 mmHg/sec
Male Wistar rats [1]
  general effects on the various haemodynamic parameters (in words): general "depressive" effects

## COc1ccc(C=CC(=O)NCCCCNC(=N)NCC=C(C)C)cc1OC [guanido-I]
Male Wistar rats [2]; 50 μg/kg i.v.
  Δ AP DIAST: -5 ± 1 mmHg
  Δ AP SYST: -4 ± 2 mmHg
  Δ HR: +8 ± 3 beats/min
  Δ RF: +6 ± 2 acts/min
  Δ dp/dt: +52 ± 8 mmHg/sec
Male Wistar rats [2]; 100 μg/kg i.v.
  Δ AP DIAST: -6 ± 2 mmHg
  Δ AP SYST: -6 ± 2 mmHg
  Δ HR: +10 ± 1 beats/min
  Δ RF: +9 ± 4 acts/min
  Δ dp/dt: +141 ± 25 mmHg/sec
Male Wistar rats [2]; 200 μg/kg i.v.
  Δ AP DIAST: -10 ± 2 mmHg
  Δ AP SYST: -11 ± 3 mmHg
  Δ HR: +13 ± 2 beats/min
  Δ RF: +12 ± 2 acts/min
  Δ dp/dt: +1284 ± 78 mmHg/sec
Male Wistar rats [2]; 400 μg/kg i.v.
  Δ AP DIAST: -14 ± 3 mmHg
  Δ AP SYST: -15 ± 4 mmHg
  Δ HR: +14 ± 5 beats/min
  Δ RF: +16 ± 3 acts/min
  Δ dp/dt: +1712 ± 107 mmHg/sec
Male Wistar rats [2]; 800 μg/kg i.v.
  Δ AP DIAST: -15 ± 3 mmHg
  Δ AP SYST: -17 ± 3 mmHg
  Δ HR: +18 ± 4 beats/min
  Δ RF: +25 ± 6 acts/min
  Δ dp/dt: +2140 ± 263 mmHg/sec
Male Wistar rats [2]; 1600 μg/kg i.v.
  Δ AP DIAST: -18 ± 4 mmHg
  Δ AP SYST: -21 ± 6 mmHg
  Δ HR: +22 ± 3 beats/min
  Δ RF: +23 ± 9 acts/min
  Δ dp/dt: +2996 ± 104 mmHg/sec
Male Wistar rats [2]; 3200 μg/kg i.v.
  Δ AP DIAST: -29 ± 4 mmHg
  Δ AP SYST: -25 ± 5 mmHg
  Δ HR: +25 ± 8 beats/min
  Δ RF: +26 ± 7 acts/min
  Δ dp/dt: +2984 ± 362 mmHg/sec
Male Wistar rats [2]; 6400 μg/kg i.v.
  Δ AP DIAST: -29 ± 2 mmHg
  Δ AP SYST: -34 ± 4 mmHg
  Δ HR: +20 ± 4 beats/min
  Δ RF: +29 ± 5 acts/min
  Δ dp/dt: +3074 ± 441 mmHg/sec
Male Wistar rats [2]; i.v., 50-6400 μg/kg, rat
  effect on AP (in words): lowers the value of AP according to a linear dependence on the dose
  effect on HR, dp/dt and RF (in words): causes an increase in the values of HR, dp/dt and RF
Male Wistar rats [2]; i.v., rat
  cardiovascular and respiratory effects (in words): giving hypotensive responses while increasing heart rate and inotropism as well as respiratory rate
  changes in the tidal volume (TV) (in words): a linear increase has been observed with the doses
  correlation with peripheral adrenergic receptors (α1-α2; β1-β2) (in words): do not seem to be correlated to significative actions of the active ingredient at the level of the peripheral adrenergic receptors
[3]
  LD50: 57 mg/kg

## COc1ccc(C=CC(=O)NCCCCNC(=N)N)cc1OC [guanido-V, 4-[(3,4-dimethoxycinnamoyl)amino]butylguanldine]
Male Wistar rats [2]; 200 μg/kg i.v.
  Δ AP DIAST: 0 mmHg
  Δ AP SYST: 0 mmHg
  Δ HR: 0 beats/min
  Δ RF: -7 ± 2%
  Δ TV: -14 ± 4%
  Δ dp/dt: -392 ± 21 mmHg/sec
Male Wistar rats [2]; 400 μg/kg i.v.
  Δ AP DIAST: -3 ± 1 mmHg
  Δ AP SYST: -4 ± 2 mmHg
  Δ HR: 0 beats/min
  Δ RF: -3%
  Δ TV: -13 ± 2%
  Δ dp/dt: -384 ± 39 mmHg/sec
Male Wistar rats [2]; 800 μg/kg i.v.
  Δ AP DIAST: -6 ± 2 mmHg
  Δ AP SYST: -5 ± 2 mmHg
  Δ HR: 0 beats/min
  Δ RF: -3 ± 2%
  Δ TV: +12 ± 4%
  Δ dp/dt: -430 ± 43 mmHg/sec
Male Wistar rats [2]; 1600 μg/kg i.v.
  Δ AP DIAST: -6 ± 2 mmHg
  Δ AP SYST: -8 ± 3 mmHg
  Δ HR: 0 beats/min
  Δ RF: -4 ± 1%
  Δ TV: +11 ± 3%
  Δ dp/dt: -642 ± 76 mmHg/sec
Male Wistar rats [2]; 3200 μg/kg i.v.
  Δ AP DIAST: -9 ± 3 mmHg
  Δ AP SYST: -10 ± 4 mmHg
  Δ HR: 0 beats/min
  Δ RF: +1 ± 1%
  Δ TV: +20 ± 6%
  Δ dp/dt: +684 ± 38 mmHg/sec
Male Wistar rats [2]; 6400 μg/kg i.v.
  Δ AP DIAST: -15 ± 4 mmHg
  Δ AP SYST: -11 ± 3 mmHg
  Δ HR: -14 ± 6 beats/min
  Δ RF: +10 ± 4%
  Δ TV: +22 ± 7%
  Δ dp/dt: +2354 ± 214 mmHg/sec
Male Wistar rats [2]; 12800 μg/kg i.v.
  Δ AP DIAST: -28 ± 4 mmHg
  Δ AP SYST: -23 ± 5 mmHg
  Δ HR: -49 ± 8 beats/min
  Δ RF: +11 ± 3%
  Δ TV: +74 ± 8%
  Δ dp/dt: +2996 ± 170 mmHg/sec
Male Wistar rats [2]; 102400 μg/kg i.v.
  Δ AP DIAST: -30 ± 5 mmHg
  Δ AP SYST: -24 ± 4 mmHg
  Δ HR: -67 ± 11 beats/min
  Δ RF: +6 ± 4%
  Δ TV: +79 ± 12%
  Δ dp/dt: +3040 ± 224 mmHg/sec
Male Wistar rats [2]; i.v., rat
  cardiovascular and respiratory effects (in words): systolic and diastolic arterial hypotension, more evident from the dose of 3,200 μg/kg on; bradycardia was observed starting from the dose of 6,400 μg/kg, a slight reduction of dp/dt and RF appeared up to the highest doses; TV showed a similar trend
